# Reference: patent US9493484B2, “Heterocyclic compound and use thereof” (Takeda Pharmaceutical Company Limited, priority 2012, dated 2016)
# Target: T1, GluR1 flip/stargazin (AMPA receptor) in CHO-K1/GluR1 flip/stargazin-expressing cells (Homo sapiens, UniProt P42261)
# T1 construct: expressed in transfected cells; host or cells: CHO-K1
# Assay: AMPA receptor function-enhancing activity of compound, using calcium influx as an index
# Assay type: cell-based
# Conditions: test compound final concentration 30 μM with 3 mM glutamic acid, 100% = 3 mM glutamic acid + 300 μM cyclothiazide
# Description: Human GluR1 flip cDNA was amplified by PCR method using forward primer […] (SEQ ID NO: 1) and reverse primer […] (SEQ ID NO: 2) artificially synthesized using human brain-derived cDNA (BD Bioscience) as a template. The amplified product was digested with restriction enzymes EcoRI, NotI (TAKARA SHUZO CO. LTD.) and incorporated into the same site of pcDNA3.1(+) (Invitrogen) to construct pcDNA3.1(+)/human GluR1 flip gene. Human stargazin cDNA was amplified by PCR method using forward primer […] (SEQ ID NO: 3) and reverse primer […] (SEQ ID NO: 4) artificially synthesized using human hippocampus cDNA as a template. The amplified product was digested with restriction enzymes XhoI, BamHI (TAKARA SHUZO CO. LTD.) and incorporated into the same site of pcDNA3.1(−) (Invitrogen) to construct pcDNA3.1 Zeo(−)/human stargazing gene.
# CHO-K1 cells passaged in a culture medium (Ham's F12 medium (Invitrogen) added with 10% inactivated fetal bovine serum (Morgate) and penicillin, streptomycin (Invitrogen)) were detached using 0.05% trypsin and 0.53 mM EDTA (Invitrogen) diluted with D-PBS(−). The detached cells were suspended in a culture medium, and recovered by centrifugation at 1,000 rpm. The recovered cells were re-suspended in D-PBS(−) and added into 0.4 cm electroporation cuvette (BioRad). pcDNA3.1(+)/human GluR1 flip gene (5 μg) and pcDNA3.1 Zeo(−)/human stargazin gene (15 μg) were added, and introduced into CHO-K1 cells under the conditions of […], […] and using Gene Pulser II (BioRad). The introduced cells were cultured overnight in a culture medium. The next day, using a selection medium (culture medium added with zeocin (Invitrogen) at 250 μg/mL), the cells were plated in a 96 well plate at 250 cells/well. The clones showing drug resistance were selected, and GluR1 flip/stargazin expression clones were selected by an assay method shown below using calcium influx as an index.
# CHO-K1/GluR1 flip/stargazin-expressing cells were plated on a 96 well black bottom transparent plate (coaster) at 3×10^4 cells/well, and cultured for 2 days in a CO2 incubator (SANYO ELECTRIC Co. Ltd.) at 37° C. The medium of the cell plate was removed, a calcium indicator (Calcium4 Assay Kit, Molecular Device) dissolved in a liquid obtained by adding 1.25 mM probenecid (Invitrogen) to an assay buffer (140 mM NaCl, 5 mM KCl, 10 mM Glucose, 2 mM CaCl2, 1 mM MgCl2, 10 mM HEPES, pH 7.4, 0.1% BSA (SIGMA)) was added at 100 μL/well, and left in a CO2 incubator at 37° C. for 1 hr. A cell plate was set on CellLux (PerkinElmer), a mixture (50 μL) of 9 mM glutamic acid (final concentration 3 mM) diluted with an assay buffer and a test compound (test compound final concentration 30 μM) was added, and variation in the amount of fluorescence was measured for 2 min. The variation of fluorescence level of a well added with final concentration 3 mM glutamic acid and 300 μM cyclothiazide (TOCRIS, prepared from 100 mM dimethyl sulfoxide solution) was defined as 100%, the variation of fluorescence level of a well containing final concentration 3 mM glutamic acid and 0.33% dimethyl sulfoxide was defined as 0%, and the activity of the m compound was calculated by the following formula. activity (%)=(X−C)/(T−C)×100 T: variation of fluorescence level of well added with final concentration 3 mM of glutamic acid and 300 μM cyclothiazide C: variation of fluorescence level of well added with final concentration 3 mM of glutamic acid alone X: variation of fluorescence level of well added with final concentration 3 mM of glutamic acid and 30 μM test compound
# T1 sequence (P42261 19-906 isoform P42261-2 limits assumed): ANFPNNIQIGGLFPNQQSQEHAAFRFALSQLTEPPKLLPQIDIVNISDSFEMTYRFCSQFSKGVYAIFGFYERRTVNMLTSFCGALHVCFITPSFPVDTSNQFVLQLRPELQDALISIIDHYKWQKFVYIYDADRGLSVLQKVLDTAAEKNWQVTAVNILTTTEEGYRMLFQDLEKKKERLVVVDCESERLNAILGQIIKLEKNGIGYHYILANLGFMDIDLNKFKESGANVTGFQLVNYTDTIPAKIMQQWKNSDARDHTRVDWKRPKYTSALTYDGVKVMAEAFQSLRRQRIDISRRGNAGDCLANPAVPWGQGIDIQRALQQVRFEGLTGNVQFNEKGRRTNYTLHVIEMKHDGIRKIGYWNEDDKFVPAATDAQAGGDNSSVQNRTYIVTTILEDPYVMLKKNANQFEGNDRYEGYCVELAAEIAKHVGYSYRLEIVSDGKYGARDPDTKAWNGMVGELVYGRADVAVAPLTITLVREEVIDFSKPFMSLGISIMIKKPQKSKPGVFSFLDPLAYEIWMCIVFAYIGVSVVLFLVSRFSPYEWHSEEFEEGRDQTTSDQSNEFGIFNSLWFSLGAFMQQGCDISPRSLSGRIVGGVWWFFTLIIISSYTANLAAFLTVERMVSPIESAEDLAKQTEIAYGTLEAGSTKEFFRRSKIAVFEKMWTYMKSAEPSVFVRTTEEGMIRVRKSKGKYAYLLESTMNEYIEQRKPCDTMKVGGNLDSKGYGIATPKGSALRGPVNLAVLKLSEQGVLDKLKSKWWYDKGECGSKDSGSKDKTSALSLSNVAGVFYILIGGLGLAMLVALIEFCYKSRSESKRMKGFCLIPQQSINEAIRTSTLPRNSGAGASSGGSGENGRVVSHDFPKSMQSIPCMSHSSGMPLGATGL
# T1 sequence (Q9Y698 whole entry partner): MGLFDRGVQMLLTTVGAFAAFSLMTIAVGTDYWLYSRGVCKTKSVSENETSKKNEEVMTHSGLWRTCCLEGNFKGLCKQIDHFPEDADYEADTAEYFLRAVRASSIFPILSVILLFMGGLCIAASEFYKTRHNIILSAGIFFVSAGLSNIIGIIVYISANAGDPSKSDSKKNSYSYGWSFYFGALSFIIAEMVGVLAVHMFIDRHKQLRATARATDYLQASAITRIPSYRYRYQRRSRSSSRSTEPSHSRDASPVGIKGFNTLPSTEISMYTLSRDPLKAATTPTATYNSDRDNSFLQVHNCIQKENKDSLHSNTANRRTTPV
row,SMILES,activity (%)
1,"O=S1(=O)CCN2C(=N1)C1(c3ccc(Oc4ccc(Cl)cc4)cc3)CCC2CC1 [Example 1, 9-(4-(4-chlorophenoxy)phenyl)-3,4,6,7,8,9-hexahydro-6,9-ethanopyrido[2,1-c][1,2,4]thiadiazine 2,2-dioxide]",26%
2,"CC(F)(F)c1cccc(Oc2ccc(C34CCC(CC3)N3CCS(=O)(=O)N=C34)cc2)c1 [Example 2, 9-(4-(3-(1,1-difluoroethyl)phenoxy)phenyl)-3,4,6,7,8,9-hexahydro-6,9-ethanopyrido[2,1-c][1,2,4]thiadiazine 2,2-dioxide]",74%
3,"O=S1(=O)CCN2C(=N1)C1(c3ccc(Oc4cc(C(F)(F)F)ccn4)cc3)CCC2CC1 [Example 15, 9-(4-((4-(trifluoromethyl)pyridin-2-yl)oxy)phenyl)-3,4,6,7,8,9-hexahydro-6,9-ethanopyrido[2,1-c][1,2,4]thiadiazine 2,2-dioxide]",92%
4,"N#Cc1cccc(Oc2ccc(C34CCC(CC3)N3CCS(=O)(=O)N=C34)cc2)c1 [Example 16, 3-(4-(2,2-dioxido-3,4,7,8-tetrahydro-6,9-ethanopyrido[2,1-c][1,2,4]thiadiazin-9(6H)-yl)phenoxy)benzonitrile]",87%
5,"O=S1(=O)CCN2C(=N1)C1(c3ccc(Oc4ncccn4)cc3)CCC2CC1 [Example 23, 9-(4-(pyrimidin-2-yloxy)phenyl)-3,4,6,7,8,9-hexahydro-6,9-ethanopyrido[2,1-c][1,2,4]thiadiazine 2,2-dioxide]",61%
6,"CC(C)COc1ccc(C23CCC(CC2)N2CCS(=O)(=O)N=C23)cc1 [Example 28, 9-(4-isobutoxyphenyl)-3,4,6,7,8,9-hexahydro-6,9-ethanopyrido[2,1-c][1,2,4]thiadiazine 2,2-dioxide]",91%
7,"O=S1(=O)CCN2C(=N1)C1(c3ccc(OCc4cccc(Cl)c4)cc3)CCC2CC1 [Example 30, 9-(4-((3-chlorobenzyl)oxy)phenyl)-3,4,6,7,8,9-hexahydro-6,9-ethanopyrido[2,1-c][1,2,4]thiadiazine 2,2-dioxide]",22%
8,"O=S1(=O)CCN2C(=N1)C1(c3ccc(OCC4CCCO4)cc3)CCC2CC1 (stereo not shown) [Example 38, 9-(4-(tetahydrofuran-2-ylmethoxy)phenyl)-3,4,6,7,8,9-hexahydro-6,9-ethanopyrido[2,1-c][1,2,4]thiadiazine 2,2-dioxide]",87%
9,"O=S1(=O)CCN2CCCN(c3ccc(Oc4ccc(Cl)cc4)cc3)C2=N1 [Example 45, 9-(4-(4-chlorophenoxy)phenyl)-3,4,6,7,8,9-hexahydropyrimido[2,1-c][1,2,4]thiadiazine 2,2-dioxide]",77%
10,"Cc1ccc(Oc2ccc(C34CCC(CC3)N3CCS(=O)(=O)N=C34)cc2)cc1C#N [Example 47, 5-(4-(2,2-dioxido-3,4,7,8-tetrahydro-6,9-ethanopyrido[2,1-c][1,2,4]thiadiazin-9(6H)-yl)phenoxy)-2-methylbenzonitrile]",87%
